From patent US11337996B2 (priority 2012, dated 2022)
Where “and” joins values, the source holds several entries; their conditions need not be identical. Identical values can stand only once. Entries after “also recorded” stand apart in the source; their conditions may differ. Like-named read-outs stand apart in the source and are kept apart here. Marks after values point to notes of the source that are not given here.

Legend:
[1] = system: Clostridium perfringens pathogen (CPP) without and with Aflatoxin; parameters: species or system Cobb 500 chicks; conditions: in vivo
[2] = system: IL8, LITAF, IL-6, iNOS, TNFSF15 expression; parameters: species or system broiler chickens (Ross/Ross); conditions: in vivo
Clostridium perfringens = format: in vivo, broiler chicken (Cobb X Cobb); conditions: infect
[3] = system: Clostridium perfringens pathogen (CPP); format: in vivo, Cobb 500 chicks; conditions: CPP Challenge
E. maxima = system: E. maxima; parameters: species or system chickens; conditions: in vivo
[4] = parameters: species or system Cobb 500 chicks; conditions: in vivo
[5] = system: IL8, LITAF, TNFSF15, IL-6, iNOS, IL-1β expression; parameters: species or system broiler chickens (Ross/Ross); conditions: in vivo
[6] = system: Clostridium perfringens pathogen (CPP) + 1 ppm aflatoxin B1; parameters: species or system Cobb 500 chicks; conditions: in vivo
α-toxin antigen = conditions: in vivo
[7] = system: Clostridium perfringens (CP); format: in vivo, chickens
[8] = system: Clostridium perfringens (CPP) and aflatoxin; parameters: species or system Cobb 500 chicks; conditions: in vivo
NetB toxin antigen = conditions: in vivo

For virginiamycin [VM], the “Daily Feed Intake, g 0-10 d” value [1] was 21.2^a g, the “Daily Feed Intake, g 0-24 d” value [1] was 47.6^ab g and the “Daily Feed Intake, g 10-24 d” value [1] was 68.2^b g. The “FCR (F:G) 0-10 d” value [1] was 1.24^c, the “FCR (F:G) 0-24 d” value [1] was 1.35^b and the “FCR (F:G) 10-24 d” value [1] was 1.39^b. The “Gain, g 0-10 d” value [1] was 173^a g, the “Gain, g 0-24 d” value [1] was 917^a g and the “Gain, g 10-24 d” value [1] was 744^a g. For the same substance, the “Lesion Score at d-20” value [1] was 0.767, the “Mortality, % 0-10 d” value [1] was 0.42^c % and the “Mortality, % 10-24 d” value [1] was 0.63%. For the same substance, the IL8 expression [2] was “decreased”, the IL-6 expression [2] was “generally decreased” and the LITAF expression [2] was “decreased”. The iNOS expression [2] was “generally decreased”, the “% NE Mortality” value (Clostridium perfringens) was 1.6 bc % and the “Feed Consumption D0-21” value (Clostridium perfringens) was 4.733 b. The “Feed Consumption D0-28” value (Clostridium perfringens) was 6.313 b, the “Feed Consumption D14-21” value (Clostridium perfringens) was 2.312 c and the “Feed Consumption D14-28” value (Clostridium perfringens) was 2.891 bc. The “Feed Conversion D0-21” value (Clostridium perfringens) was 1.947 bc, the “Feed Conversion D0-28” value (Clostridium perfringens) was 1.929 bc and the “Feed Conversion D14-21” value (Clostridium perfringens) was 1.752 c. The “Feed Conversion D14-28” value (Clostridium perfringens) was 1.797 c, the “Weight Gain D0-21” value (Clostridium perfringens) was 0.316 b and the “Weight Gain D14-21” value (Clostridium perfringens) was 0.171 a. For the same substance, the “Weight Gain D14-28” value (Clostridium perfringens) was 0.367 b, the “NE (0-3) Lesion Score” value (Clostridium perfringens; DOT 21) was 0.5 ab and the “Feed Conversion Ratio Day 0-10” value [3] was 1.22^b. For the same substance, the “Feed Conversion Ratio Day 0-24” value [3] was 1.33^f, the “Feed Conversion Ratio Day 10-24” value [3] was 1.36^e and the “Feed intake, g Day 0-10” value [3] was 20.9^cde g. The “Feed intake, g Day 0-24” value [3] was 50.5^a g, the “Feed intake, g Day 10-24” value [3] was 73.6^a g and the “Gain, g Day 0-10” value [3] was 174^ab g. For the same substance, the “Gain, g Day 0-24” value [3] was 980^a g, the “Gain, g Day 10-24” value [3] was 806^a g and the “Lesions Day 20” value [3] was 1.025^a. For the same substance, the “Mortality, % Day 0-10” value [3] was 0.63^ef %, the “Mortality, % Day 10-24” value [3] was 0.63^bc % and the “Gain, g Day 10-24” value ([3]; listed as virginiamycin) was “improved gain compared to the diet with no product”. The “Feed Conversion Day 0-21” value (E. maxima) was 1.676 ^ef, the “Feed Conversion Day 0-28” value (E. maxima) was 1.604 ^e and the “Feed Conversion Day 14-21” value (E. maxima) was 1.550 ^d. For the same substance, the “Feed Conversion Day 14-28” value (E. maxima) was 1.480 ^d, the “Lesion Score” value (E. maxima) was 0.0^d and the “Necrotic Enteritis Mortality, %” value (E. maxima) was 0.0^c %. The “Weight Gain Day 0-21” value (E. maxima) was 0.569 ^ab, the “Weight Gain Day 0-28” value (E. maxima) was 0.845 ^a and the “Weight Gain Day 14-21” value (E. maxima) was 0.325 ^a. For the same substance, the “Weight Gain Day 14-28” value (E. maxima) was 0.601 ^a, the “Feed Conversion Ratio Day 0-10” value [4] was 1.28^b and the “Feed Conversion Ratio Day 0-24” value [4] was 1.34^ef. For the same substance, the “Feed intake, g Day 0-10” value [4] was 22.6^ab g, the “Feed intake, g Day 10-24” value [4] was 72.2^abc g and 72.2^abe g and the “Gain, g Day 0-10” value [4] was 180^a g. The “Gain, g Day 0-24” value [4] was 983^a g, the “Gain, g Day 10-24” value [4] was 804^a g and the “Mortality, % Day 0-10” value [4] was 0^f %. For the same substance, the “Mortality, % Day 10-24” value [4] was 0.63^bc %, the performance [4] was “improved performance” and the TNFSF15 expression [5] was “decreased”. For the same substance, the iNOS expression [5] was “decreased”, the “Feed Conversion Ratio Day 0-24” value [6] was 1.38^abcd and the “Feed Conversion Ratio Day 10-24” value [6] was 1.43^ab. For the same substance, the “Feed intake, g Day 0-10” value [6] was 20.0^efg, the “Feed intake, g Day 0-24” value [6] was 41.7^f g and the “Feed intake, g Day 10-24” value [6] was 58.7^g. The “Gain, g Day 0-10” value [6] was 166^cd g, the “Gain, g Day 0-24” value [6] was 788^f g and the “Gain, g Day 10-24” value [6] was 622^f g. For the same substance, the “Lesions Day 20” value [6] was 1.150^a, the “Mortality, % Day 0-10” value [6] was 0.63^ef % and the “Mortality, % Day 10-24” value [6] was 0.63^bc %. For the same substance, the gain [6] was “higher gains than adding NP”, the “antibodies to α-toxin (optical density)” value (α-toxin antigen) was “notable increases” and the “serum antibody levels against α-toxin” value (α-toxin antigen) was “significantly higher”. The “Feed Conversion Day 0-21” value ([7]; CP) was 1.746 ^bcdef, the “Feed Conversion Day 0-28” value ([7]; CP) was 1.706 ^bcd and the “Feed Conversion Day 14-21” value ([7]; CP) was 1.566 ^d. For the same substance, the “Feed Conversion Day 14-28” value ([7]; CP) was 1.563 ^bcd, the “Weight Gain Day 0-21” value ([7]; CP) was 0.511 ^bcd and the “Weight Gain Day 0-28” value ([7]; CP) was 0.742 ^b. For the same substance, the “Weight Gain Day 14-21” value ([7]; CP) was 0.295 ^bcd, the “Weight Gain Day 14-28” value ([7]; CP) was 0.526 ^bcd and the “Lesion Score” value ([7]; CP, 0 to 3 score) was 0.2^cd. For the same substance, the “Necrotic Enteritis Mortality, %” value ([7]; CP, listed as Virginiamycin) was 6.3^bc %, the “Necrotic Enteritis Mortality, %” value ([7]; CP, listed as virginiamycin) was “significantly better than no product” and the “Rank (lesion score, necrotic enteritis mortality, d 14-28 weight gain and feed conversion ratio)” value ([7]; Table A, birds with a Clostridium perfringens challenge) was 1. For the same substance, the “reduction of disease, in words” value ([7]; in vivo) was “numerically the best”, the feed conversion [8] was “improved; also recorded: greatest improvement at 1.5 ppm” and the feed intake [8] was “improved”. The gain [8] was “improved; also recorded: higher gain that those birds not fed VM; also recorded: helps improve gain; also recorded: not at 1.5 ppm AFL”, the lesion scores [8] was “increased” and the mortality [8] was “decreased”. For the same substance, the “serum antibody levels against the NetB toxin antigen” value (NetB toxin antigen) was “higher” and the “serum antibody response against NetB toxin antigen” value (NetB toxin antigen) was “increased”.
